PMC1892040 (PLoS Medicine, 2007)
Where two headings read alike, the source gives them in different places.

How the values were obtained:
[1] = molecular target: T1, S. mansoni TGR (Schistosoma mansoni, UniProt Q962Y6); test: biochemical; format: biochemical; parameters: The entire TGR ORF plus the SECIS element was subcloned into pET-24a; made in house; host or cells: Escherichia coli BL21(DE3) with pSUABC; settings: for Type of inhibition of TGR: reciprocal plots, TrxR and GR activities
T1 sequence (Q962Y6 1-598): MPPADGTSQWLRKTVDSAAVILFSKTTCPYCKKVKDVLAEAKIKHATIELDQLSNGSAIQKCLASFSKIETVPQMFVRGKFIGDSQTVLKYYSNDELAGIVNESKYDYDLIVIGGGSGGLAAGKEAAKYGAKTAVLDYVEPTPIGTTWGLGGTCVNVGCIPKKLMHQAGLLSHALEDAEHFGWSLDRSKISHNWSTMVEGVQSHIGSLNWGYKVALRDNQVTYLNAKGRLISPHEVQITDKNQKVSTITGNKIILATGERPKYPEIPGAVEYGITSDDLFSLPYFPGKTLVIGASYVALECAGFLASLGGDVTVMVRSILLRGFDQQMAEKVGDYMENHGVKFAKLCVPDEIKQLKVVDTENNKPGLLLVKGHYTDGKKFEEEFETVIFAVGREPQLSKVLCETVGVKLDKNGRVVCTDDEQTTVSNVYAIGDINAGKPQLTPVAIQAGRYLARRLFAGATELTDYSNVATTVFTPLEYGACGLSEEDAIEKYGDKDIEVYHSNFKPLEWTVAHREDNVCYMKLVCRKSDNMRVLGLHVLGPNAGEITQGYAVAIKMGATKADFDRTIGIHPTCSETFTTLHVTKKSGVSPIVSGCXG
Method: The inhibitory constants (K i) were determined using Equation 1 [21]: [drawing 1] where v maxapp is the apparent v max at different inhibitor concentrations and corresponds to the value of the 1/v intercept on the reciprocal plot.
The apparent Vmax for various concentrations of inhibitors were used to calculate K i values. Concentrations of PAT are no drug (♦), 10 nM, 30 nM (▴), and 75 nM (×); and of OPZ are no drug (♦), 50 μM, 75 μM (▴), and 100 μM (×).

[2] = molecular target: T1, S. mansoni TGR; settings: rough estimation at low OPZ concentrations
Method: OPZ concentrations were 0 (•), 25 (□), 50 (♦), 75 (Δ), and 100 (▴) μM. All incubation mixtures included 2% final DMSO. […] The error bars in (B) and (D) represent ± the standard errors of the k obs values estimated separately at each inhibitor concentration, as obtained from nonlinear regression analysis.

[3] = molecular target: T2, Human GR (Homo sapiens, UniProt P00390); test: Inhibition of human GR (GSSG); format: biochemical; settings: 12.5 μM compound, 200 μM disulfide substrate, preincubation 60 min at 37 °C; read-out: Percent inhibition of Human GR
T2 sequence (P00390 44-522): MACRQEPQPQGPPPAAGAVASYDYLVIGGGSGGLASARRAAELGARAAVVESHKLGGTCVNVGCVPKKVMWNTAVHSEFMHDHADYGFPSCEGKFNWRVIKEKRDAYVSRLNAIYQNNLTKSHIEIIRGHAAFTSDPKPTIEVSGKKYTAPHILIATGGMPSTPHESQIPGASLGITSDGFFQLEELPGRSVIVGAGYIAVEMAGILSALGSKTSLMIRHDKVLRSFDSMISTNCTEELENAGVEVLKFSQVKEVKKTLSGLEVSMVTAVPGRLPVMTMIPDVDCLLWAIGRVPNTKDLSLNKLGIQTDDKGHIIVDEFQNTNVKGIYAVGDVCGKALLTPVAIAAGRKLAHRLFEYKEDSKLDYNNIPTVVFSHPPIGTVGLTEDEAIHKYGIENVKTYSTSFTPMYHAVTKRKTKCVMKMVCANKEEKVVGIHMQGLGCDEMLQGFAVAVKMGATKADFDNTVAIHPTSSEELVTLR
Excerpt: (§1) In order to assess the potential for inhibition of TGR we screened several structurally diverse series of compounds (Figure S1) known to act as inhibitors of disulfide reductases from various organisms.

[4] = molecular target: T3, Human TrxR (Homo sapiens, UniProt Q16881); test: Inhibition of human TrxR (DTNB/Trx); format: biochemical; settings: 12.5 μM compound, 200 μM disulfide substrate, preincubation 60 min at 37 °C; read-out: Percent inhibition of Human TrxR
T3 sequence (Q16881 1-499 isoform Q16881-5): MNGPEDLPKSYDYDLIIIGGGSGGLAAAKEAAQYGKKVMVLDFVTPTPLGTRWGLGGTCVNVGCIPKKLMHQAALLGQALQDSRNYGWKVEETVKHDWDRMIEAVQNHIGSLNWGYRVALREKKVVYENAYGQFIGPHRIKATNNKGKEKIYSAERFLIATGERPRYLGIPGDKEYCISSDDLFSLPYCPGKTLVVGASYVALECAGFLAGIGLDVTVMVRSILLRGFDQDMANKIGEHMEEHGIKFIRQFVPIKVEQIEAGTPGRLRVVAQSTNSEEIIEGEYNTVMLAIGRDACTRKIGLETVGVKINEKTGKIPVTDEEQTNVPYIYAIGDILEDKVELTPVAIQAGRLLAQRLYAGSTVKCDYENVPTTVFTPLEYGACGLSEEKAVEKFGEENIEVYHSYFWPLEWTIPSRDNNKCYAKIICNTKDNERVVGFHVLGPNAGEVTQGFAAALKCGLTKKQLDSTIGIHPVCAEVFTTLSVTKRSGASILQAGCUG
Excerpt: as §1

[5] = molecular target: T1, S. mansoni TGR
Method: (§2) Assays were performed at 25 °C in 0.1 M potassium phosphate (pH 7.4), 10 mM EDTA using 100 μM NADPH unless otherwise stated.
(§3) Initial inhibitor screens were conducted in 200 μl volumes in 96 well plates with 50 μM inhibitor, 100 μM NADPH, and 5 nM TGR in 0.1 M potassium phosphate (pH 7.4), 10 mM EDTA with a preincubation step of 15 min. […] All assays were done in triplicate.

[6] = system: Human TrxR1; settings: read-out: Apparent Km, Human TrxR1; cited from earlier work
[7] = molecular target: T1, S. mansoni TGR; test: Kinetic analysis of recombinant S. mansoni TGR with substrates
Method: Kinetic parameters were determined using Lineweaver–Burk plots using KaleidaGraph 4 (Synergy Software, http://www.synergy.com) least squares best fit of data and varying concentrations of one substrate while maintaining the concentration of other substrates. […] All assays were done in triplicate.

[8] = system: Human TGR; settings: read-out: Apparent Km, Human TGR; cited from earlier work
[9] = molecular target: T2, Human GR; settings: read-out: Apparent Km, Human GR; cited from earlier work
[10] = molecular target: T1, S. mansoni TGR; format: biochemical; parameters: The entire TGR ORF plus the SECIS element was subcloned into pET-24a; made in house; host or cells: Escherichia coli BL21(DE3) with pSUABC; settings: read-out: IC50 S. mansoni TGR, DTNB (TrxR activity)
Method: as §2, §3

[11] = molecular target: T1, S. mansoni TGR; format: biochemical; parameters: The entire TGR ORF plus the SECIS element was subcloned into pET-24a; made in house; host or cells: Escherichia coli BL21(DE3) with pSUABC; settings: read-out: IC50 S. mansoni TGR, GSSG (GR activity)
Method: as §2, §3

[12] = molecular target: phosphofructokinase (PFK); parameters: method as in PMID 8898332; settings: cited from earlier work
[13] = system: myeloma cell line SP2/0; test: Cytotoxicity assay (sulforhodamine B); format: cell-based; settings: adult worms 24 h; myeloma cells 24 h and 5 d
Method: Cytotoxicity assays were performed using sulforhodamine B to determine cellular protein content as described. Briefly, myeloma cell line SP2/0 was cultured in 96-well microtiter plates containing 0.2 ml of RPMI-1640 per well at a cell density of 1,000 per well at 37 °C in 5% CO2. Cells were treated with drug concentrations (or drug carrier alone) and exposure times as indicated. After treatment, cells were fixed with 10% TCA at 4 °C for 1 h. Fixed cells were rinsed to remove fixative and then stained in 0.4% (w/v) sulforhodamine B (Sigma) in 1% acetic acid for 30 min. After washing with 1% acetic acid and dye extraction in 10 mM Tris (pH 10.5), plates were read at A564nm. The A564nm of drug-treated cells was compared to carrier-only-treated cells. The treatments were done in triplicate and the experiments repeated three times.

[14] = substrate of TGR (20 nM), 25 °C, pH 7.4, 100 μM NADPH, ± SD

SMILES: Cc1c(-c2cnccn2)ssc1=S [OPZ, oltipraz]
- Ki ([1]; Ki (± standard deviation), GR activity of TGR, GSSG as substrate): 33.8 ± 6 µM
- Ki ([1]; Ki (± standard deviation), TrxR activity of TGR, DTNB as substrate): 18.1 ± 1.1 µM
- Type of inhibition of TGR [1]: noncompetitive
- k i, first-order rate constant for irreversible inactivation, GR assay [2]: ~0.04 min⁻¹
- k i, first-order rate constant for irreversible inactivation, TrxR assay [2]: ~0.06 min⁻¹
- inhibition at 12.5 µM [3]: 0%
- inhibition at 12.5 µM [4]: 37%
- activity [5]: 13%

SMILES: NC(=O)C1=CN([C@@H]2O[C@H](COP(=O)(O)OP(=O)(O)OC[C@H]3O[C@@H](n4cnc5c(N)ncnc54)[C@H](OP(=O)(O)O)[C@@H]3O)[C@@H](O)[C@H]2O)C=CC1 [NADPH]
- Km [6]: 19.6 µM
- Km ([7]; read-out: Apparent Km, S. mansoni TGR): 13.7 µM
- kcat ([7]; substrate of TGR (20 nM), 25 °C, pH 7.4, 100 μM NADPH): 20.1 s⁻¹
- Km [7, 14]: 13.7 ± 2.4 µM
- Vmax [7, 14]: 25.1 ± 1.8 µM/min
- Km [8]: 10.7 µM
- Km [9]: 8.5 µM

SMILES: O.O.O.O=C([O-])[C@H]([O-])[C@@H]([O-])C(=O)[O-].O=C([O-])[C@H]([O-])[C@@H]([O-])C(=O)[O-].[K+].[K+].[Sb+3].[Sb+3] [PAT, potassium antimonyl tartrate]
- IC50 [10]: 0.051 µM
- Ki ([1]; DTNB as substrate, read-out: Ki (± standard deviation), TrxR activity of TGR): 0.00486 ± 0.00046 µM
- Ki ([1]; GSSG as substrate, read-out: Ki (± standard deviation), GR activity of TGR): 0.00722 ± 0.00496 µM
- Type of inhibition of TGR [1]: noncompetitive
- IC50 [11]: 0.037 µM
- IC50 [12]: 16 µM
- Differential in toxicity between adult worms and mammalian cells [13]: similarly large differential in toxicity
- Activity of Enzyme (% of Uninhibited Enzyme) [5]: 0%
